Data taken from patent US5061711A, “Method of curing liver diseases by using pyrrolo quinoline quinone triesters and novel pyrrolo quinoline quinone triesters” (Mitsubishi Gas Chemical Company, Inc., priority 1989, dated 1991).

Columns and labels:
[1] = bovine, not told, 960 min
Method: Each compound dissolved in 10 mM HEPES buffer (containing 1%DMSO in the case of PQQ triesters) was put in an apparatus for measurement of membrane permeation constant and left to stand for 16 hours at 35 ° C. and then amount of the compound which migrated was measured by ultraviolet absorption (243 nm for PQQ 2Na and 255 nm for PQQ triester) to obtain membrane permeation constant.

mice = assay: Kidney toxicity determined by urine test; format: in vivo, mouse
Method: (2) Kidney toxicity determined by urine test
PQQ.2Na, PQQ trimethyl ester and PQQ triallyl ester were intraperitoneally administered to mice and they were bred in the same manner as in the above acute toxicity test. The doses per kg of body weight of mouse were 20, 40 and 80 mg for PQQ.2Na and 20, 40, 80, 160 and 200 mg for PQQ triesters. Urine was collected every day and glucose concentration was examined using clinical examination reagent (trademark: […] II manufactured by Miles.Sankyo Co.).

male mice SPF-ICR = assay: Acute toxicity test; conditions: mouse, in vivo
Method: To male mice SPF-ICR five weeks old (supplied by Japan Charles River Co.) were intraperitoneally administered PQQ.2Na, PQQ trimethyl ester and PQQ triallyl ester at dosages of 40, 80, 160 and 200 mg per kg of body weight of mouse, respectively and they were bred for 14 days at 25° C. One group consisted of 8 mice. For administration, PQQ.2Na was dissolved in physiological saline and PQQ trimethyl ester and PQQ triallyl ester were suspended in 1%Tween 80-containing physiological saline, respectively.

[2] = system: carbon tetrachloride (CCl4)-induced liver diseases; assay: Pharmacological activity (2) on carbon tetrachloride (CCl4)-induced liver diseases; format: in vivo, SD rats; conditions: CCl4 1 ml/kg rat i.p., 24 hours, average of five rats; for Total bilirubin in serum: CCl4 alone 0.9; for GPT in serum: CCl4 alone 949; for GOT in serum: CCl4 alone 1970
Method: Pharmacological activity (2) of PQQ triesters on carbon tetrachloride (CCl4)-induced liver diseases:
Forty SD rats (male, 7 weeks old, body weight: about 260 g; supplied by Japan Charles River Co.) were divided to eight groups (A-H) each consisting of five rats. All rats were fasted for 18 hours and 1.3 ml of a solution containing 2 mg/ml of PQQ trimethyl ester was intraperitoneally administered to the rats of group C, 1.3 ml of a solution containing 10 mg/ml of PQQ trimethyl ester was intraperitoneally administered to the rats of group D, 1.3 ml of a solution containing 20 mg/ml of PQQ trimethyl ester was intraperitoneally administered to the rats of group E, 1.3 ml of a solution containing 2 mg/ml of PQQ triallyl ester was intraperitoneally administered to the rats of group F, 1.3 ml of a solution containing […] was intraperitoneally administered to the rats of group G, and 1.3 ml of a solution containing 20 mg/ml of PQQ triallyl ester was intraperitoneally administered to the rats of group H and furthermore, after lapse of 50 minutes, the same PQQ triesters in the same doses as above were intraperitoneally administered to respective rats. In these cases, the PQQ triesters were suspended in physiological saline containing 1% Tween 80 and administered to the rats. 1.3 ml of physiological saline was intraperitoneally administered to the rats of group B in place of PQQ triesters. […] Neither PQQ triesters nor carbon tetrachloride were administered to the rats of group A.
(§1) After 24 hours from administration of carbon tetrachloride, blood was collected from abdominal main artery and serum was obtained by centrifugation therefrom.
GPT, […] and amount of total bilirubin in the serum were measured by clinical examination reagent (trademark: FUJI DRYCHEMSLIDE manufactured by Fuji Photo Film Co., Ltd.). The results are shown in Table 6 by average value of five rats.

[3] = system: carbon tetrachloride (CCl4)-induced liver diseases; assay: Pharmacological activity (1) on carbon tetrachloride (CCl4)-induced liver diseases; format: in vivo, SD rats; conditions: i.p. 5 mg/kg rat twice, CCl4 1 ml/kg rat, 24 hours, average of five rats
Method: Pharmacological activity (1) of PQQ triesters on carbon tetrachloride (CCl4)-induced liver diseases:
Twenty SD rats (male, 7 weeks old, body weight: about 220 g; supplied by Japan Charles River Co.) were divided to four groups (A-D) each consisting of five rats. All rats were fasted for 16 hours and 1.1 ml of a solution containing 1 mg/ml of PQQ trimethyl ester was intraperitoneally administered to the rats of group C and 1.1 ml of a solution containing 1 mg/ml of PQQ triallyl ester was intraperitoneally administered to the rats of group D and after lapse of 40 minutes, the same PQQ triesters in the same dose as above was intraperitoneally administered, respectively. For administration, the PQQ triesters were suspended in physiological saline containing 1 % Tween 80, 1.1 ml of physiological saline was intraperitoneally administered to the rats of group B in place of PQQ triesters. Furthermore, after 20 minutes, 2.2 ml of 10 vol% carbon tetrachloride (solution in olive oil) was administered to stomach of the rats of groups B-D. Neither PQQ triesters nor carbon tetrachloride were administered to the rats of group A.
as §1
GPT, GOT and amount of total bilirubin in the serum were measured by clinical examination reagent (trademark: FUJI DRYCHEMSLIDE manufactured by Fuji Photo Film Co., Ltd.). The results are shown in Table 5 by average value of five rats.

For C=CCOC(=O)c1cc(C(=O)OCC=C)c2c(n1)C(=O)C(=O)c1cc(C(=O)OCC=C)[nH]c1-2 [PQQ triallyl ester], the Membrane permeation constant [1] was 2.42 ± 0.60 10^-7 cm^2 · sec^-1, the “membrane permeation constant relative to that of PQQ.2Na” value [1] was 3-4 times and the glucose in urine (mice; i.p. 20 mg/kg, day 1) was “-”. The glucose in urine (mice; i.p. 20 mg/kg, day 2) was “-”, the glucose in urine (mice; i.p. 20 mg/kg, day 3) was “-” and the glucose in urine (mice; i.p. 20 mg/kg, day 6) was “-”. For the same compound, the glucose in urine (mice; i.p. 20 mg/kg, day 7) was “-”, the glucose in urine (mice; i.p. 20 mg/kg, day 8) was “-” and the glucose in urine (mice; i.p. 20 mg/kg, day 10) was “-”. For the same compound, the glucose in urine (mice; i.p. 20 mg/kg, day 13) was “-”, the glucose in urine (mice; i.p. 20 mg/kg, day 14) was “-” and the glucose in urine (mice; i.p. 40 mg/kg, day 1) was “-”. The glucose in urine (mice; i.p. 40 mg/kg, day 2) was “-”, the glucose in urine (mice; i.p. 40 mg/kg, day 3) was “-” and the glucose in urine (mice; i.p. 40 mg/kg, day 6) was “-”. The glucose in urine (mice; i.p. 40 mg/kg, day 7) was “-”, the glucose in urine (mice; i.p. 40 mg/kg, day 8) was “-” and the glucose in urine (mice; i.p. 40 mg/kg, day 10) was “-”. The glucose in urine (mice; i.p. 40 mg/kg, day 13) was “-”, the glucose in urine (mice; i.p. 40 mg/kg, day 14) was “-” and the glucose in urine (mice; i.p. 80 mg/kg, day 1) was “-”. The glucose in urine (mice; i.p. 80 mg/kg, day 2) was “-”, the glucose in urine (mice; i.p. 80 mg/kg, day 3) was “-” and the glucose in urine (mice; i.p. 80 mg/kg, day 6) was “-”. The glucose in urine (mice; i.p. 80 mg/kg, day 7) was “-”, the glucose in urine (mice; i.p. 80 mg/kg, day 8) was “-” and the glucose in urine (mice; i.p. 80 mg/kg, day 10) was “-”. The glucose in urine (mice; i.p. 80 mg/kg, day 13) was “-”, the glucose in urine (mice; i.p. 80 mg/kg, day 14) was “-” and the glucose in urine (mice; i.p. 160 mg/kg, day 1) was “-”. For the same compound, the glucose in urine (mice; i.p. 160 mg/kg, day 2) was “-”, the glucose in urine (mice; i.p. 160 mg/kg, day 3) was “-” and the glucose in urine (mice; i.p. 160 mg/kg, day 6) was “-”. The glucose in urine (mice; i.p. 160 mg/kg, day 7) was “-”, the glucose in urine (mice; i.p. 160 mg/kg, day 8) was “-” and the glucose in urine (mice; i.p. 160 mg/kg, day 10) was “-”. For the same compound, the glucose in urine (mice; i.p. 160 mg/kg, day 13) was “-”, the glucose in urine (mice; i.p. 160 mg/kg, day 14) was “-” and the glucose in urine (mice; i.p. 200 mg/kg, day 1) was “-”. For the same compound, the glucose in urine (mice; i.p. 200 mg/kg, day 2) was “-”, the glucose in urine (mice; i.p. 200 mg/kg, day 3) was “-” and the glucose in urine (mice; i.p. 200 mg/kg, day 6) was “-”. For the same compound, the glucose in urine (mice; i.p. 200 mg/kg, day 7) was “-”, the glucose in urine (mice; i.p. 200 mg/kg, day 8) was “-” and the glucose in urine (mice; i.p. 200 mg/kg, day 10) was “-”. For the same compound, the glucose in urine (mice; i.p. 200 mg/kg, day 13) was “-”, the glucose in urine (mice; i.p. 200 mg/kg, day 14) was “-” and the “glucose in urine (in words)” value (mice; i.p., all doses) was “no glucose was detected”. For the same compound, the mice died (male mice SPF-ICR) was “no mice died”, the “Total bilirubin in serum” value ([2]; i.p. 10 mg/kg rat twice) was 0.7 mg/dL and the GPT in serum ([2]; i.p. 10 mg/kg rat twice) was 323 U/l. The GOT in serum ([2]; i.p. 10 mg/kg rat twice) was 1186 U/l, the “Total bilirubin in serum” value ([2]; i.p. 50 mg/kg rat twice) was 0.7 mg/dL and the GPT in serum ([2]; i.p. 50 mg/kg rat twice) was 583 U/l. The GOT in serum ([2]; i.p. 50 mg/kg rat twice) was 1270 U/l, the “Total bilirubin in serum” value ([2]; i.p. 100 mg/kg rat twice) was 0.8 mg/dL and the GPT in serum ([2]; i.p. 100 mg/kg rat twice) was 576 U/l. The GOT in serum ([2]; i.p. 100 mg/kg rat twice) was 1563 U/l, the “Total bilirubin in serum” value ([3]; CCl4 alone 1.2) was 0.8 mg/dL and the GPT in serum ([3]; CCl4 alone 818) was 371 U/l. The GOT in serum ([3]; CCl4 alone 3308) was 2150 U/l.
